Experimental data reported in patent US11130756B2, “[1,2,4]Triazolo[4,3-A]pyridinyl substituted indole compounds” (BRISTOL-MYERS SQUIBB COMPANY, priority 2017, dated 2021).

Columns and labels:
Assay type in all cases: cell-based
human TLR9 = target: T1, human TLR9 (Homo sapiens, UniProt Q9NR96); test: TLR9 inhibition reporter assay (HEK-Blue, SEAP); conditions: HEK-Blue cells overexpressing human TLR9, ODN2006 5 nM, 22 hour incubation
T1 construct: host or cells: HEK-Blue cells
T1 sequence (Q9NR96 26-1032): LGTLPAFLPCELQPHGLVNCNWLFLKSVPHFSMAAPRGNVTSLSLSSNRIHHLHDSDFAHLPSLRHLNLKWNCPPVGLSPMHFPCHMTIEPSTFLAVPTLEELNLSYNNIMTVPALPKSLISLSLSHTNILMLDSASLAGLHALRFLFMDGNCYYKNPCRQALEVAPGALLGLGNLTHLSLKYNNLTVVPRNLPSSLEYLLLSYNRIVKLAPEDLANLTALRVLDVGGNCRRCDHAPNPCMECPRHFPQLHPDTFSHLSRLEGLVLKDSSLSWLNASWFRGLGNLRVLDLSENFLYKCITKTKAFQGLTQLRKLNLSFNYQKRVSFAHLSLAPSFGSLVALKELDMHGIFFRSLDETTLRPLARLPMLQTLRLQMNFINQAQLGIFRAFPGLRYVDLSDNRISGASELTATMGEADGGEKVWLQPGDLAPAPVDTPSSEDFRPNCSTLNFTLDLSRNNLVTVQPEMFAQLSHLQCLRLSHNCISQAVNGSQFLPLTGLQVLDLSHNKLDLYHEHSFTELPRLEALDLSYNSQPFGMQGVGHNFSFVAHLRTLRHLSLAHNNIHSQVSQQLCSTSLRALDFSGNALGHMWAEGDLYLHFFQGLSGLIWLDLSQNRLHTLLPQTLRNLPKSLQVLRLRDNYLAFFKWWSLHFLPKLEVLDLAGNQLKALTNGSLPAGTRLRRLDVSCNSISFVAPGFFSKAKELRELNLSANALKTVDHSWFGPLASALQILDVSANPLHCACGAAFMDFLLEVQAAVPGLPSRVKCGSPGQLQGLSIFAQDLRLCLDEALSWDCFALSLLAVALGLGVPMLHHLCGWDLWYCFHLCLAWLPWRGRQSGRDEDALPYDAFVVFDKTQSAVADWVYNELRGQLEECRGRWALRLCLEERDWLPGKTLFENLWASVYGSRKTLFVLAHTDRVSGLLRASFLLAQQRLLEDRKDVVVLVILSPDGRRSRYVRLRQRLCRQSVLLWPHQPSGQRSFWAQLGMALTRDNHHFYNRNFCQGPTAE
Outline: (§1)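 Agonists used: gardiquimod 7.5 μM (TLR7), R848 15.9 μM (TLR8), ODN2006 5 nM (TLR9), added after 30 min room-temperature compound pre-treatment (0.05 nM–50 μM) of receptor-overexpressing HEK-Blue cells. SEAP reporter (NF-κB/AP-1 driven) read after 22 h at 37 °C; inhibition scaled between agonist+DMSO and reference-inhibitor wells.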

human TLR8 = target: T2, human TLR8 (Homo sapiens, UniProt Q9NR97); test: TLR8 inhibition reporter assay (HEK-Blue, SEAP); conditions: HEK-Blue cells overexpressing human TLR8, R848 15.9 μM, 22 hour incubation
T2 construct: host or cells: HEK-Blue cells
T2 sequence (Q9NR97 27-1041): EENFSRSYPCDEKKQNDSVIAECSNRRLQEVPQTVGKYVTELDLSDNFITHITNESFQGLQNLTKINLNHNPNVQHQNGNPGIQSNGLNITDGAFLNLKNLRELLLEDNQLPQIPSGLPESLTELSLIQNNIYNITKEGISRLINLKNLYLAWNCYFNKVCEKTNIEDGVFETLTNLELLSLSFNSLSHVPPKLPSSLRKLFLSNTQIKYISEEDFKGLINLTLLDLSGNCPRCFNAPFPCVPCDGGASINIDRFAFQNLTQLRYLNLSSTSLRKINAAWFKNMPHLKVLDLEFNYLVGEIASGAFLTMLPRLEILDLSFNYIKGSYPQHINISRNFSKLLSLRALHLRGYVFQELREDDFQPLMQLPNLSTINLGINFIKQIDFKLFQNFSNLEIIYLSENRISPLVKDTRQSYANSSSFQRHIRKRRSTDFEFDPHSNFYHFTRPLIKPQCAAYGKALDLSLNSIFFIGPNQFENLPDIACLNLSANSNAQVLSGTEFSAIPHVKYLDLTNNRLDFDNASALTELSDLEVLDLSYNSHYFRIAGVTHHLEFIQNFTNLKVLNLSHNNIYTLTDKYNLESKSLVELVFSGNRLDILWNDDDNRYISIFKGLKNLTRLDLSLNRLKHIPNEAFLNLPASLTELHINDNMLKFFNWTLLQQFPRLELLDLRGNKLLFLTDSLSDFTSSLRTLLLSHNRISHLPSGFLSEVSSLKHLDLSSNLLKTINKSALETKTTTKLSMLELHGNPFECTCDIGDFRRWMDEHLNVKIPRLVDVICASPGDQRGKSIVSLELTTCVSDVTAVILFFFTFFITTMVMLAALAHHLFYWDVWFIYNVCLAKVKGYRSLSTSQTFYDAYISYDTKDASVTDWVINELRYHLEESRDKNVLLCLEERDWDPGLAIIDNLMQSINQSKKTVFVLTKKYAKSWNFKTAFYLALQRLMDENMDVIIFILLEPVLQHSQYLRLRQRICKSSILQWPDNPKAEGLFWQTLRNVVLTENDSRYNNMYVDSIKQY
Outline: as §1

human TLR7 = target: T3, human TLR7 (Homo sapiens, UniProt Q9NYK1); test: TLR7 inhibition reporter assay (HEK-Blue, SEAP); conditions: HEK-Blue cells overexpressing human TLR7, gardiquimod 7.5 μM, 22 hour incubation
T3 construct: host or cells: HEK-Blue cells
T3 sequence (Q9NYK1 27-1049): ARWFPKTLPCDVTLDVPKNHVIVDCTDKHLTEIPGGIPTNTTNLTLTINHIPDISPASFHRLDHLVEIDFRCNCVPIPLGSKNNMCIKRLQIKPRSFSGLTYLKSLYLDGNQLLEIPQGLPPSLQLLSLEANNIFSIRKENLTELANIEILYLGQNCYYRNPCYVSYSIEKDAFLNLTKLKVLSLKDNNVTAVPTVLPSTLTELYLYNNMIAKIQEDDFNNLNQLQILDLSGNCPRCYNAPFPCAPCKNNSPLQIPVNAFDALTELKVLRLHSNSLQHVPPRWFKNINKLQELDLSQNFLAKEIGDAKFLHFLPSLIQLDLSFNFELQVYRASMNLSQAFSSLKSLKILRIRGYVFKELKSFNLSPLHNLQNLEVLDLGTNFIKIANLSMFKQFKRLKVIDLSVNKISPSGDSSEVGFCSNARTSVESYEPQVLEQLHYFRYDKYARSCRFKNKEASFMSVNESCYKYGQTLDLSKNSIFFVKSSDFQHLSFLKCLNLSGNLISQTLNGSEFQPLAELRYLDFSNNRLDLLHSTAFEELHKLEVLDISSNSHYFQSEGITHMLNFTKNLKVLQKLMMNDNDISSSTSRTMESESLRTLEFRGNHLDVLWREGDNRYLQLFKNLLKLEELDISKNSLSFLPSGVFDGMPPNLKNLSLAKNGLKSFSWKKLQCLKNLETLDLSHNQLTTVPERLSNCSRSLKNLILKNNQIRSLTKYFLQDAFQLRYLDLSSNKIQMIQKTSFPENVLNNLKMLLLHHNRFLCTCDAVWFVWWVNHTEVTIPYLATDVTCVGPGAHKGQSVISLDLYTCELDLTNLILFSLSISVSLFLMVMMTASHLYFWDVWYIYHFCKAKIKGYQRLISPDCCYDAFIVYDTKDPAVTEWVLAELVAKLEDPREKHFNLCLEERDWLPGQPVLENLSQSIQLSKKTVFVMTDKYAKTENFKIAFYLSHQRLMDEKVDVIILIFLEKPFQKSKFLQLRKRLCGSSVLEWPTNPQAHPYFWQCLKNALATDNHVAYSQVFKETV
Outline: as §1

| SMILES | IC50 (human TLR9) [nM] | IC50 (human TLR8) [nM] | IC50 (human TLR7) [nM] |
| --- | --- | --- | --- |
| Cc1c(-c2[nH]c3ccc(C4CCN(CC(=O)N(C)C)CC4)cc3c2C(C)C)cn2cnnc2c1C [Example 39, 2-(4-(2-(7,8-dimethyl-[1,2,4]triazolo [4,3-a]pyridin-6-yl)-3-isopropyl-1H-indol-5-yl)piperidin-1-yl)-N,N-dimethylacetamide] | 4240 | 9.5 | 1.9 |
| Cc1cc(-c2[nH]c3ccc(C4CCN(Cc5ncn(C)n5)CC4)cc3c2C(C)C)c(C)n2cnnc12 [Example 40, 6-(3-isopropyl-5-(1-((1-methyl-1H-1,2,4-triazol-3-yl)methyl)piperidin-4-yl)-1H-indol-2-yl)-5,8-dimethyl-[1,2,4]triazolo[4,3-a]pyridine] | 7890 | 4.5 | 104 |
| Cc1cc(-c2[nH]c3ccc(C4CCN(CCCC(F)(F)F)CC4)cc3c2C(C)C)c(C)n2cnnc12 [Example 41, 6-(3-isopropyl-5-(1-(4,4,4-trifluorobutyl)piperidin-4-yl)-1H-indol-2-yl)-5,8-dimethyl-[1,2,4]triazolo[4,3-a]pyridine] | 2850 | 3.3 | 25.5 |
| Cc1cc(-c2[nH]c3ccc(C4CCN(CC(=O)N(C)C)CC4)cc3c2C(C)C)c(C)n2cnnc12 [Example 42, 2-(4-(2-(5,8-dimethyl-[1,2,4]triazolo[4,3-a]pyridin-6-yl)-3-isopropyl-1H-indol-5-yl)piperidin-1-yl)-N,N-dimethylacetamide] | 3750 | 6 | 32.5 |
| Cc1c(-c2[nH]c3ccc(C4CCN(CCS(C)(=O)=O)CC4)cc3c2C(C)C)cn2cnnc2c1C [Example 43, 6-(3-isopropyl-5-(1-(2-(methylsulfonyl)ethyl)piperidin-4-yl)-1H-indol-2-yl)-7,8-dimethyl-[1,2,4]triazolo[4,3-a]pyridine] | 6610 | 3.2 | 1.8 |
| Cc1c(-c2[nH]c3ccc(C4CCN(CCCC(F)(F)F)CC4)cc3c2C(C)C)cn2cnnc2c1C [Example 44, 6-(3-isopropyl-5-(1-(4,4,4-trifluorobutyl)piperidin-4-yl)-1H-indol-2-yl)-7,8-dimethyl-[1,2,4]triazolo[4,3-a]pyridine] | 1750 | 6.5 | 1.7 |

Other lines, results leading:

| IC50 (human TLR9) [nM] | IC50 (human TLR8) [nM] | IC50 (human TLR7) [nM] | SMILES |
| --- | --- | --- | --- |
| 2310 | 8.1 | 3.2 | Cc1c(-c2[nH]c3ccc(C4CCN(Cc5ncn(C)n5)CC4)cc3c2C(C)C)cn2cnnc2c1C [Example 45, 6-(3-isopropyl-5-(1-((1-methyl-1H-1,2,4-triazol-3-yl)methyl)piperidin-4-yl)-1H-indol-2-yl)-7,8-dimethyl-[1,2,4]triazolo[4,3-a]pyridine] |
| 8910 | 8.6 | 2.1 | Cc1c(-c2[nH]c3ccc(C4CCN(CCS(C)(=O)=O)CC4)cc3c2C(C)C)cn2cnnc2c1Cl [Example 46, 8-chloro-6-(3-isopropyl-5-(1-(2-(methylsulfonyl)ethyl)piperidin-4-yl)-1H-indol-2-yl)-7-methyl-[1,2,4]triazolo[4,3-a]pyridine] |
| 2070 | 21.9 | 3.8 | Cc1c(-c2[nH]c3ccc(C4CCN(Cc5ncn(C)n5)CC4)cc3c2C(C)C)cn2cnnc2c1Cl [Example 47, 8-chloro-6-(3-isopropyl-5-(1-((1-methyl-1H-1,2,4-triazol-3-yl)methyl)piperidin-4-yl)-1H-indol-2-yl)-7-methyl-[1,2,4]triazolo[4,3-a] pyridine] |
| 2570 | 13.5 | 1.9 | Cc1c(-c2[nH]c3ccc(C4CCN(CCCC(F)(F)F)CC4)cc3c2C(C)C)cn2cnnc2c1Cl [Example 48, 8-chloro-6-(3-isopropyl-5-(1-(4,4,4-trifluorobutyl)piperidin-4-yl)-1H-indol-2-yl)-7-methyl-[1,2,4]triazolo[4,3-a]pyridine] |
| 957 | 31.1 | 1.5 | Cc1c(-c2[nH]c3ccc(C4CCN(CC(=O)N(C)C)CC4)cc3c2C(C)C)cn2cnnc2c1Cl [Example 49, 2-(4-(2-(8-chloro-7-methyl-[1,2,4]triazolo[4,3-a]pyridin-6-yl)-3-isopropyl-1H-indol-5-yl)piperidin-1-yl)-N,N-dimethylacetamide] |
| 1090 | 57 | 1.5 | Cc1c(-c2[nH]c3ccc(C4CCN(CC#N)CC4)cc3c2C(C)C)cn2cnnc2c1Cl [Example 50, 2-(4-(2-(8-chloro-7-methyl-[1,2,4]triazolo[4,3-a]pyridin-6-yl)-3-isopropyl-1H-indol-5-yl)piperidin-1-yl)acetonitrile] |
| 1000 | 31.8 | 2.8 | Cc1c(-c2[nH]c3ccc(C4CCN(CC#N)CC4)cc3c2C(C)C)cn2cnnc2c1C [Example 51, 2-(4-(2-(7,8-dimethyl-[1,2,4]triazolo[4,3-a]pyridin-6-yl)-3-isopropyl-1H-indol-5-yl)piperidin-1-yl)acetonitrile] |
